The source of these data is patent publication US20160044922A1, “Control of Ectoparasites” (priority 2014, published 2016).

In one data set the test system is tobacco bud worm. The note with it: cited from earlier work.
The subject of another data set is ticks. Briefly: Activity on ticks. The note with it: in vivo.
The test system of another data set is mosquito larvae. Particulars: cited from earlier work.
A further data set relates to fleas. Briefly: Activity on fleas. The note with it: in vivo.
The next data set relates to southern corn rootworm. Particulars: cited from earlier work.
The next data set relates to beneficial mite species. Particulars: under normal use; cited from earlier work.
Data set [1] deals with Larval-stage lone star ticks (Amblyomma americanum). Briefly: Dip survival assay, A. americanum larvae. Type of data set: in vivo. Particulars: larvae submerged 30 minutes, counted after 24 hours at 25° with 95% humidity. Here is the method: Activity Against A. Americanum Larvae in a Dip Survival Assay
Compound 1 from a dimethyl sulfoxide (DMSO) stock or 2% DMSO alone is dispensed into a round-bottom 96-well plate and mixed with aqueous buffer containing 1% ethanol, 0.2% Triton X100. […] Larval-stage lone star ticks (Amblyomma americanum) are dispensed into the wells containing the Compound and submerged for 30 minutes. The ticks are subsequently dispensed into a tissue biopsy bag, which is allowed to dry for 1 hour. After drying, the bags are incubated at 25° with 95% humidity for 24 hours and the number of live or dead larvae are enumerated. The observations made illustrated in the following table.

The conditions of data set [2]: rat versus trout liver microsomes; cited from earlier work.
For data set [3], the system named is predatory mites and many beneficial insects. Particulars: under field conditions; cited from earlier work.
The subject of the next data set is cotton aphids. The note with it: cited from earlier work.
Another data set has as its system tobacco budworm. The note with it: cited from earlier work.
For another data set, the system named is cabbage looper. Particulars: cited from earlier work.
In another data set the test system is fish, mammals. The note with it: fish versus mammals; cited from earlier work.

With `CC(C)(C)c1ccc(CCOc2ncnc3ccccc23)cc1` [Formula I, 4-tert-butylphenethyl quinazolin-4-yl ether], in the data set on tobacco bud worm, the “metabolism by the tobacco bud worm” value is “extensively metabolized”. Also, in the data set with ticks, the activity on ticks result is “active”. In addition, the results for the LC50 in the data set with mosquito larvae, with cotton aphids and in the data set with cabbage looper were 0725 ppm, 2.6 ppm and 188 ppm, respectively. Also, the activity on fleas entry with fleas is listed as “active”. The activity result in the data set with southern corn rootworm and with tobacco budworm was “greater than 400 ppm” in each case. Moreover, in the data set with beneficial mite species, the “toxicity to beneficial mite species” value is on record as “relatively low toxicity”. Further, the “Number of live/dead A. americanum larvae 24 hours after treatment” value in data set [1] (0.01% compound) is given as 0/52; in [1] (0.05% compound), 0/48. The “degradation by liver microsomes” value in data set [2] is reported as “degraded more extensively by rat liver microsomes than by trout liver microsomes”. Further, the “impact on predatory mites and many beneficial insects” value (from here on “impact”) in data set [3] is reported as “minimal impact”. In addition, the toxicity result with fish, mammals is recorded as “higher toxicity of the compound to fish than to mammals”.
Turning to `CCc1nn(C)c(C(=O)NCc2ccc(C(C)(C)C)cc2)c1Cl` [Formula II, 4-chloro-5-ethyl-2-methyl-N-[(4-tert-butylphenyl)methyl]pyrazole-3-carboxamide], in the data set with beneficial mite species, the “toxicity to beneficial mite species” value was “relatively low toxicity”. Moreover, the “impact” value in data set [3] is given as “minimal impact”.
Consider `CC(C)(C)c1ccc(CSc2cnn(C(C)(C)C)c(=O)c2Cl)cc1` [pyridaben, 4-chloro-2-tert-butyl-5-[(4-tert-butylphenyl)methylsulfanyl]pyridazin-3-one], for which the “impact” value in [3] is reported as “minimal impact”.
